From patent publication US8952008B2, “Chemical compounds” (Pfizer Limited, priority 2012, dated 2015) come the findings set out here.

For test [1], the target named is GABRA1-GABRB3-GABRG2 chloride currents in HEK cells (Homo sapiens (Human), UniProt P14867+P18507). Kind of test: QPatch electrophysiological recording, % enhancement of GABA current (α1 PAM). In kind it is cell-based. The settings on record: approximately EC10 GABA, −60 mV, whole-cell patch clamp. As for the experimental part: (§1) Cell suspension containing HEK cells expressing GABRA2-GABRB2-GABRG2 was placed on the QPatch instrument in serum-free medium into the instrument's cell stirrer. The instrument washed the cells once using extracellular buffer and then dispensed them into the QPlate HT measurement plate at a concentration of 3-4-e6/ml. […] All recordings were made at room temperature (22-24° C.).
GABRA1-GABRB3-GABRG2 chloride currents in HEK cells, sequence (P14867 28-456): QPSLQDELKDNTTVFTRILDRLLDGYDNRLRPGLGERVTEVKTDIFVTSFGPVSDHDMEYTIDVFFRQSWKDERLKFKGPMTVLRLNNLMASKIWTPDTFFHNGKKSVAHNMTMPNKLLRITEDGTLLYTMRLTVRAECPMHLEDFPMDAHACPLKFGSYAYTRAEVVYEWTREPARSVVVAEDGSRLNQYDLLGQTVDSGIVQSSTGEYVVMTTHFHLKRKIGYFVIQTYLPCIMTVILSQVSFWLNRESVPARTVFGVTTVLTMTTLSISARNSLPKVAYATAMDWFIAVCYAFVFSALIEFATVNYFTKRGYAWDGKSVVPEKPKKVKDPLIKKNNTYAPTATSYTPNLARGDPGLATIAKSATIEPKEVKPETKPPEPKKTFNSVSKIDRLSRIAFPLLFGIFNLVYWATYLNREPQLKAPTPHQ
GABRA1-GABRB3-GABRG2 chloride currents in HEK cells, sequence (P28472 26-473 partner): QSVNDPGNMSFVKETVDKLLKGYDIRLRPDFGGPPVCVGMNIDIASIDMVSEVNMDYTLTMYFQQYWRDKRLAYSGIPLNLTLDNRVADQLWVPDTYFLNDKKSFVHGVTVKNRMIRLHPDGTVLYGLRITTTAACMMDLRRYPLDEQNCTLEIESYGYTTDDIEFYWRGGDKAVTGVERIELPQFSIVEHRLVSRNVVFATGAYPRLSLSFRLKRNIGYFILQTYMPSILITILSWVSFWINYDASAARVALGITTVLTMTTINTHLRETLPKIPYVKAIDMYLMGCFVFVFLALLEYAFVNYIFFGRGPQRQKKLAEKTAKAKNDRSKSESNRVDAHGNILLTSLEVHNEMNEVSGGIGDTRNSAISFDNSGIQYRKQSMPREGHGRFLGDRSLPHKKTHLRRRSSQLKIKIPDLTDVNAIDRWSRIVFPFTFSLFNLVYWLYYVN
GABRA1-GABRB3-GABRG2 chloride currents in HEK cells, sequence (P18507 40-475): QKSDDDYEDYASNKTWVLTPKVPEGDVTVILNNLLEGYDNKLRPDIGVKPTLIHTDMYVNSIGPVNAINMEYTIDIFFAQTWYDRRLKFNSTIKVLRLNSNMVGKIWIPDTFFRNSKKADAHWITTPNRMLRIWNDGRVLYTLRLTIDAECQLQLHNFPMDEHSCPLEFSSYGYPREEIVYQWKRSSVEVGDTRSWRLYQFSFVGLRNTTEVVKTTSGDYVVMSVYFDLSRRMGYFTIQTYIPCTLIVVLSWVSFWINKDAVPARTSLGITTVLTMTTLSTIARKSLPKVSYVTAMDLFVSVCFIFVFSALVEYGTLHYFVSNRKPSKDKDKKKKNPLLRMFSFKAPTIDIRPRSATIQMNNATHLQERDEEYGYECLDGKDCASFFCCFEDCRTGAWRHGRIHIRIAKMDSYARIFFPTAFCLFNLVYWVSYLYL
(§2) Current records were acquired at 1 KHz and filtered at 0.3 KHz using the Bessel filter. Series resistance compensation was set to 80% in the QPatch software.
(§3) All compounds were dissolved in dimethyl sulfoxide to make 30 mM or 10 mM stock solutions, which were then diluted to 1000 times the desired final concentration in dimethyl sulfoxide. These were diluted into extracellular solution to attain the final concentrations desired. […] This concentration of dimethyl sulfoxide was present in all samples.
(§4) Currents were recorded at −60 mV, using an approximately EC10 concentration of gamma-aminobutyric acid (GABA). This dose of gamma-aminobutyric acid was applied for 6 seconds and washed off using extracellular buffer as an unrecorded application using the pipetting system of the QPatch instrument. The same dose of gamma-aminobutyric acid was then applied for 9 seconds, then the test compound was co-applied with this dose of gamma-aminobutyric acid for 15 seconds, and washed off using the extracellular solution using the pipetting system of the QPatch instrument.
(§5) Compound effect (% enhancement of gamma-aminobutyric acid current) was calculated using the following formula: [((peak modulator current amplitude-leak)−(GABA current amplitude-leak))/(GABA current amplitude-leak)]*100, where ‘leak’ is leak current at −60 mV, ‘peak modulator current amplitude’ is the current elicited by co-application of gamma-aminobutyric acid and test compound, and ‘GABA current amplitude’ is the current elicited by application of gamma-aminobutyric acid alone.
The ability of the compounds of the formula (I) to modulate the GABA channels expressing the al subunit (or GABRA1) can also be measured using an assay analogous to that described above but replacing the GABRA2-GABRB2-GABRG2 gene construct with the GABRA1-GABRB3-GABRG2 gene construct. All other conditions remain the same including the same cell line and conditions for cell growth.

Test [2] has as its target GABRA2-GABRB2-GABRG2 chloride currents in HEK cells (Homo sapiens (Human), UniProt P18507+P47869). Kind of test: QPatch electrophysiological recording, % enhancement of GABA current (α2 PAM). The class given is cell-based. Conditions: approximately EC10 GABA, −60 mV, whole-cell patch clamp. On the procedure:
Human Embryonic Kidney (HEK) cells were transfected with a GABRA2-GABRB2-GABRG2 construct using standard techniques.
For QPatch electrophysiology testing, cells were harvested from flasks by enzymatic dissociation and resuspended in serum-free medium. Cells were typically used for electrophysiological experiments within 24 to 72 hours after splitting.
as §1, §2, §3, §4, §5

The target of test [3] is human recombinant GABA A receptor containing the alpha2, beta2, and gamma3 subunits (Homo sapiens, UniProt P47869+Q99928). Kind of test: Radioligand competition binding assay with [3H]Ro-15-1788 (Flumazenil).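 Further: membranes from HEK cells expressing the receptor, incubated with radioligand to equilibrium, filter-bound radioactivity counted, Ki reported as geometric mean of replicate runs.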
Protocol: Membranes were prepared from HEK cells expressing hGABA A alpha2beta2-gamma3 receptor, and validated to ascertain protein concentration, receptor expression and to determine the Kd of the flumazenil as well as the Ki of a standard set of compounds before being used to test new compounds.
100 ul of radioligand and 100 ul of membrane in 50 mM Tris-HCl and 0.05% F127 with 1 ul of test compound was incubated for 2 hours to allow the reaction to achieve equilibrium, and then harvested onto filter plates, dried and counted on a TopCount NXT. The data was analysed, and the Ki values were presented as the geometric mean of at least two replicates.

Each structure is given as a SMILES string.

GABRA2-GABRB2-GABRG2 chloride currents in HEK cells, sequence (P47869 29-451): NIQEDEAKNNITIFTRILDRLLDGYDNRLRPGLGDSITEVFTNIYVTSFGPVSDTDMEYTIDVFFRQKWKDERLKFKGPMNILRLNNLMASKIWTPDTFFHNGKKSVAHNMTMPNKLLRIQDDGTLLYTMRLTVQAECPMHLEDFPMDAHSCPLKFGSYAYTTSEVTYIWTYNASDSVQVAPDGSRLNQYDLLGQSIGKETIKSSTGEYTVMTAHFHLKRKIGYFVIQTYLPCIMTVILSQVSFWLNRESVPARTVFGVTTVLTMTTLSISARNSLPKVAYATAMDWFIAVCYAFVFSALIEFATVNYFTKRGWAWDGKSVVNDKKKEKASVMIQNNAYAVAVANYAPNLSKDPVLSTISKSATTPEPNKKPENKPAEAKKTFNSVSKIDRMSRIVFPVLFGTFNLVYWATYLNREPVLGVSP
GABRA2-GABRB2-GABRG2 chloride currents in HEK cells, sequence (P47870 26-512 partner): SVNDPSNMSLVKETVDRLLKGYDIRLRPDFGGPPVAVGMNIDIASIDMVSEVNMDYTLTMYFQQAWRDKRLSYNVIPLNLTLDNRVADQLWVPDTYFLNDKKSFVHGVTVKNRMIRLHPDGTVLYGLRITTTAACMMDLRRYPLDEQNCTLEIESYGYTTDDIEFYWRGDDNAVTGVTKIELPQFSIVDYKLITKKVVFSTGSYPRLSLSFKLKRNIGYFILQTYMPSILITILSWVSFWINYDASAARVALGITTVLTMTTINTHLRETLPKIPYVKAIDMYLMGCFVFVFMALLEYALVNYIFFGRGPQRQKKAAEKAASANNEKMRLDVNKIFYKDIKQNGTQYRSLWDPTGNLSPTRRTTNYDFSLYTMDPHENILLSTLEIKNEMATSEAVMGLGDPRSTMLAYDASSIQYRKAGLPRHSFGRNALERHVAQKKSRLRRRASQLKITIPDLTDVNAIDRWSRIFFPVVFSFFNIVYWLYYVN
GABRA2-GABRB2-GABRG2 chloride currents in HEK cells, sequence (P18507 40-475): as the sequence (P18507 40-475) above

Turning to `CCn1cnc2c(-c3ccc(F)c(-c4ccc(S(=O)(=O)CC)cc4C#N)c3)cnnc21` [Example 11, 5′-(7-Ethyl-7H-imidazo[4,5-c]pyridazin-4-yl)-4-(ethylsulfonyl)-2′-fluoro-[1,1′-biphenyl]-2-carbonitrile], in test [1], the “α1 PAM (%)” value was −0.474%. Besides, in test [2], the “α2 PAM (%)” value amounted to 46.7%. The inhibitory constant (Ki) in test [3] is 39.2 nM.
For `CCS(=O)(=O)c1ccc(-c2cc(-c3cnnc4c3ncn4C(C)C)ccc2F)c(C#N)c1` [Example 41, 4-(Ethylsulfonyl)-2′-fluoro-5′-(7-isopropyl-7H-imidazo[4,5-c]pyridazin-4-yl)-[1,1′-biphenyl]-2-carbonitrile], in that order: 14.9%, 81.3% and 29.1 nM.
For `CNS(=O)(=O)c1ccc(-c2cc(-c3cnnc4c3ncn4C(C)C)ccc2F)cc1` [Example 33, 2′-Fluoro-N-methyl-5′-[7-(propan-2-yl)-7H-imidazo[4,5-c]pyridazin-4-yl]biphenyl-4-sulfonamide], in that order: −27.0%, 79.9% and 16.4 nM.
For `COc1cc(S(C)(=O)=O)ccc1-c1cc(-c2cnnc3c2ncn3C2CC2)ccc1F` [Example 24, 7-Cyclopropyl-4-(6-fluoro-2′-methoxy-4′-(methylsulfonyl)-[1,1′-biphenyl]-3-yl)-7H-imidazo[4,5-c]pyridazine], in that order: −0.441%, 55.3% and 37.1 nM.
On to `CCS(=O)(=O)c1ccc(-c2cc(-c3cnnc4c3ncn4C(C)C)ccc2F)c(F)c1` [Example 34, 4-[4′-(Ethylsulfonyl)-2′,6-difluorobiphenyl-3-yl]-7-(propan-2-yl)-7H-imidazol[4,5-c]pyridazine], for which, in test [1], the “α1 PAM (%)” value worked out at 4.99%. Further, in test [2], the “α2 PAM (%)” value amounted to 94.7%. In addition, the inhibitory constant (Ki) in test [3] stood at 34.5 nM.
Turning to `CCn1cnc2c(-c3ccc(F)c(-c4ccc(S(C)(=O)=O)cc4OC)c3)cnnc21` [Example 12, 7-Ethyl-4-(6-fluoro-2′-methoxy-4′-(methylsulfonyl)-[1,1′-biphenyl]-3-yl)-7H-imidazo[4,5-c]pyridazine], the “α1 PAM (%)” value in test [1] is 3.66%. In addition, the “α2 PAM (%)” value in test [2] turned out to be 39.1%.
For `CS(=O)(=O)c1ccc(-c2cc(-c3cnnc4c3ncn4C3CC3)ccc2F)cc1` [Example 21, 7-Cyclopropyl-4-(6-fluoro-4′-(methylsulfonyl)biphenyl-3-yl)-7H-imidazo[4,5-c]pyridazine], the “α1 PAM (%)” value in test [1] is on record as −5.78%. Moreover, the “α2 PAM (%)” value in test [2] is 31.6%. The inhibitory constant (Ki) in test [3] is 43.3 nM.
With `COc1cc(S(C)(=O)=O)ccc1-c1cc(-c2cnnc3c2ncn3C2CCCC2)ccc1F` [Example 42, 7-Cyclopentyl-4-(6-fluoro-2′-methoxy-4′-(methylsulfonyl)-[1,1′-biphenyl]-3-yl)-7H-imidazo[4,5-c]pyridazine], the “α1 PAM (%)” value in test [1] came to 112%. Besides, the “α2 PAM (%)” value in test [2] is 199%. Besides, the Ki in test [3] worked out at 91.4 nM.
For `CCn1cnc2c(-c3ccc(F)c(-c4ccc(S(=O)(=O)C(C)C)cc4)c3)cnnc21` [Example 1, 7-Ethyl-4-[6-fluoro-4′-(propan-2-ylsulfonyl)biphenyl-3-yl]-7H-imidazo[4,5-c]pyridazine], in that order: 1.05%, 124% and 31.1 nM.
For `CCS(=O)(=O)c1ccc(-c2cc(-c3cnnc4c3ncn4C3CC3)ccc2F)c(C#N)c1` [Example 25, 5′-(7-Cyclopropyl-7H-imidazo[4,5-c]pyridazin-4-yl)-4-(ethylsulfonyl)-2′-fluoro-[1,1′-biphenyl]-2-carbonitrile], in that order: −5.82%, 23.9% and 170 nM.
In the case of `CC(C)n1cnc2c(-c3ccc(F)c(-c4ccc(S(N)(=O)=O)cc4)c3)cnnc21` [Example 32, 2′-Fluoro-5′-(7-isopropyl-7H-imidazo[4,5-c]pyridazin-4-yl)biphenyl-4-sulfonamide], the “α1 PAM (%)” value in test [1] was −29.5%. In addition, the “α2 PAM (%)” value in test [2] is listed as 77.2%. Further, in test [3], the inhibitory constant (Ki) was found to be 5.82 nM.
For `CCS(=O)(=O)c1ccc(-c2cc(-c3cnnc4c3ncn4C3CC3)ccc2F)cc1` [Example 19, 7-Cyclopropyl-4-[4′-(ethylsulfonyl)-6-fluorobiphenyl-3-yl]-7H-imidazo[4,5-c]pyridazine], in that order: −6.17%, 84.3% and 31.1 nM.
With `CCn1cnc2c(-c3ccc(F)c(-c4ccc(S(=O)(=O)CC)cc4C(F)F)c3)cnnc21` [Example 14, 4-(2′-(Difluoromethyl)-4′-(ethylsulfonyl)-6-fluoro-[1,1′-biphenyl]-3-yl)-7-ethyl-7H-imidazo[4,5-c]pyridazine], in test [1], the “α1 PAM (%)” value came out at 13.3%. In addition, the “α2 PAM (%)” value in test [2] is listed as 58.0%.
As for `COc1cc(S(C)(=O)=O)ccc1-c1cc(-c2cnnc3c2ncn3C2CCC2)ccc1F` [Example 29, 7-Cyclobutyl-4-(6-fluoro-2′-methoxy-4′-(methylsulfonyl)-[1,1′-biphenyl]-3-yl)-7H-imidazol[4,5-c]pyridazine], the “α1 PAM (%)” value in test [1] came out at 69.4%. In addition, the “α2 PAM (%)” value in test [2] is 173%. Besides, in test [3], the Ki came out at 101 nM.
As to `CCn1cnc2c(-c3ccc(F)c(-c4ccc(S(C)(=O)=O)cc4F)c3)cnnc21` [Example 2, 4-[2′,6-Difluoro-4′-(methylsulfonyl)biphenyl-3-yl]-7-ethyl-7H-imidazo[4,5-c]pyridazine], the “α1 PAM (%)” value in test [1] was −4.67%. Also, the “α2 PAM (%)” value in test [2] is 1.69%. For the same molecule, the Ki in test [3] was 10.9 nM.
For `COc1cc(S(C)(=O)=O)ccc1-c1cc(-c2cnnc3c2ncn3C(C)C)ccc1F` [Example 38, 4-(6-Fluoro-2′-methoxy-4′-(methylsulfonyl)-[1,1′-biphenyl]-3-yl)-7-isopropyl-7H-imidazo[4,5-c]pyridazine], in that order: 14.6%, 62.5% and 8.56 nM.
Consider `CCn1cnc2c(-c3ccc(F)c(-c4ccc(S(=O)(=O)NC)cc4)c3)cnnc21` [Example 8, 5′-(7-Ethyl-7H-imidazo[4,5-c]pyridazin-4-yl)-2′-fluoro-N-methylbiphenyl-4-sulfonamide], for which the “α1 PAM (%)” value in test [1] is on record as −55.1%. For the same molecule, the “α2 PAM (%)” value in test [2] turned out to be 19.4%.
In the case of `CCS(=O)(=O)c1ccc(-c2cc(-c3cnnc4c3ncn4C(C)C)ccc2F)cc1` [Example 31, 4-[4′-(Ethylsulfonyl)-6-fluorobiphenyl-3-yl]-7-(propan-2-yl)-7H-imidazo[4,5-c]pyridazine], the “α1 PAM (%)” value in test [1] is on record as 21.3%. In addition, the “α2 PAM (%)” value in test [2] amounted to 118%. Also, in test [3], the inhibition constant (Ki) came out at 23.9 nM.
